Results published in ChEMBL document CHEMBL1201862, “PubChem BioAssay data set” (2004).
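Where inhibition never reached the appropriate level, the endpoint shown equals the highest concentration tested. Otherwise, values were interpolated linearly from a five-concentration, 48-hour dose response in 96-well plates. Here, GI50 denotes the concentration required for 50% inhibition of growth.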 Calls of active or inactive are those of the source. No stated cut-off is given here; in the data, active = GI50 up to about 1.1 µM and inactive = higher.

Key:
Experiment in all cases: NCI anticancer screen, dose series, 48 h
T47D = system: T47D
Hs-578T = system: Hs-578T
RXF 393 = system: RXF 393
HCT-116 = system: HCT-116
SNB-75 = system: SNB-75
NCI-H226 = system: NCI-H226
SW-620 = system: SW-620
SF-539 = system: SF-539
OVCAR-8 = system: OVCAR-8
OVCAR-4 = system: OVCAR-4
ACHN = system: ACHN
MDA-MB-231 = system: MDA-MB-231
MCF7 = system: MCF7
PC-3 = system: PC-3
A498 = system: A498
LOX IMVI = system: LOX IMVI
EKVX = system: EKVX
786-0 = system: 786-0
SN12C = system: SN12C
UACC-62 = system: UACC-62
OVCAR-3 = system: OVCAR-3
U-251 = system: U-251
CAKI-1 = system: CAKI-1
SK-MEL-28 = system: SK-MEL-28
KM12 = system: KM12
SK-OV-3 = system: SK-OV-3
Malme-3M = system: Malme-3M
A549 = system: A549
HL-60 = system: HL-60
IGROV-1 = system: IGROV-1
COLO 205 = system: COLO 205
HOP-62 = system: HOP-62
HOP-92 = system: HOP-92
TK-10 = system: TK-10
SF-295 = system: SF-295
HCT-15 = system: HCT-15
SK-MEL-5 = system: SK-MEL-5
BT-549 = system: BT-549
SNB-19 = system: SNB-19
UO-31 = system: UO-31
DU-145 = system: DU-145
HCC 2998 = system: HCC 2998
MDA-MB-435 = system: MDA-MB-435
SK-MEL-2 = system: SK-MEL-2
HT-29 = system: HT-29
UACC-257 = system: UACC-257
NCI-H23 = system: NCI-H23
OVCAR-5 = system: OVCAR-5
SR = system: SR
SF-268 = system: SF-268
RPMI-8226 = system: RPMI-8226
K562 = system: K562
MOLT-4 = system: MOLT-4
NCI-H522 = system: NCI-H522
NCI/ADR-RES = system: NCI/ADR-RES
M14 = system: M14
CCRF-CEM = system: CCRF-CEM
MDA-N = system: MDA-N
NCI-H460 = system: NCI-H460

Measured: GI50

CC1=NNC(=S)NCCCN2CCN(CCCNC(=S)NN=C(C)C=NNC(=S)NCCCN3CCN(CCCNC(=S)NN=C1)CC3)CC2
inactive: T47D > 100 µM | Hs-578T > 100 µM | RXF 393 > 100 µM | HCT-116 > 100 µM | SNB-75 > 100 µM | NCI-H226 > 100 µM | SW-620 > 100 µM | SF-539 > 100 µM | OVCAR-8 > 100 µM | OVCAR-4 > 100 µM | ACHN > 100 µM | MDA-MB-231 > 100 µM | MCF7 > 100 µM | PC-3 > 100 µM | A498 > 100 µM | LOX IMVI > 100 µM | EKVX > 100 µM | 786-0 > 100 µM | SN12C > 100 µM | UACC-62 > 100 µM | OVCAR-3 > 100 µM | U-251 > 100 µM | CAKI-1 > 100 µM | SK-MEL-28 > 100 µM | KM12 > 100 µM | SK-OV-3 > 100 µM | Malme-3M > 100 µM | A549 > 100 µM | HL-60 > 100 µM | IGROV-1 > 100 µM | COLO 205 > 100 µM | HOP-62 > 100 µM | HOP-92 > 100 µM | TK-10 > 100 µM | SF-295 > 100 µM | SK-MEL-5 > 100 µM | BT-549 > 100 µM | SNB-19 > 100 µM | UO-31 > 100 µM | DU-145 > 100 µM | HCC 2998 > 100 µM | MDA-MB-435 > 100 µM | SK-MEL-2 > 100 µM | HT-29 > 100 µM | UACC-257 > 100 µM | NCI-H23 > 100 µM | OVCAR-5 > 100 µM | SR > 100 µM | SF-268 > 100 µM | RPMI-8226 > 100 µM | K562 > 100 µM | MOLT-4 > 100 µM | NCI-H522 > 100 µM | NCI/ADR-RES > 100 µM | M14 > 100 µM | CCRF-CEM > 100 µM | MDA-N > 100 µM
> 100 µM: HCT-15

CCc1nc(N)nc(N)c1-c1ccc2c(c1)nnn2CCc1ccccc1
inactive: T47D 23.4 µM | Hs-578T 30.7 µM | RXF 393 26.4 µM | HCT-116 2.36 µM | NCI-H460 2.32 µM | SNB-75 15.8 µM | NCI-H226 38.6 µM | SW-620 4.92 µM | SF-539 21.3 µM | OVCAR-8 4.95 µM | OVCAR-4 20.8 µM | ACHN 7.23 µM | MDA-MB-231 26.1 µM | MCF7 21.1 µM | PC-3 4.63 µM | A498 24.1 µM | LOX IMVI 5.16 µM | EKVX 21.8 µM | 786-0 5.89 µM | SN12C 22.5 µM | UACC-62 7.01 µM | OVCAR-3 16.6 µM | U-251 7.69 µM | CAKI-1 11.2 µM | SK-MEL-28 31.4 µM | KM12 14.1 µM | SK-OV-3 45.4 µM | Malme-3M 19.5 µM | A549 3.09 µM | HL-60 3.02 µM | IGROV-1 4.72 µM | COLO 205 14.9 µM | HOP-62 22.2 µM | HOP-92 38.4 µM | TK-10 35.4 µM | SF-295 8.3 µM | SK-MEL-5 8.53 µM | BT-549 22.9 µM | SNB-19 23.9 µM | UO-31 16.3 µM | DU-145 23.9 µM | HCC 2998 13.9 µM | MDA-MB-435 6.52 µM | SK-MEL-2 28.2 µM | HT-29 3.53 µM | UACC-257 22.2 µM | NCI-H23 12.6 µM | OVCAR-5 > 60.5 µM | SR 5.18 µM | SF-268 10.3 µM | RPMI-8226 13.6 µM | K562 1.55 µM | MOLT-4 8.91 µM | NCI-H522 5.98 µM | NCI/ADR-RES 13.7 µM | M14 4.66 µM | CCRF-CEM 7.23 µM | MDA-N 6.1 µM
3.09 µM: HCT-15
